Source: PubChem BioAssay (NCI)
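Compound exposure: 48 hours, 5 concentrations, 96-well plates. At the GI50, growth is halved. TGI: total growth inhibition.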

What was measured:
Assay in all cases: growth of human tumour cells (NCI), 48 h
[1] = tested on: CCRF-CEM leukemia
[2] = tested on: SNB-19 CNS
[3] = tested on: PC-3 prostate
[4] = tested on: A549 NSCLC
[5] = tested on: OVCAR-3 ovarian
[6] = tested on: K-562 leukemia
[7] = tested on: NCI/ADR-RES ovarian
[8] = tested on: HT29 colon
[9] = tested on: DU-145 prostate
[10] = tested on: KM12 colon
[11] = tested on: SF-539 CNS
[12] = tested on: LOX IMVI melanoma
[13] = tested on: TK-10 renal
[14] = tested on: U251 CNS
[15] = tested on: SF-268 CNS
[16] = tested on: NCI-H460 lung
[17] = tested on: UACC-62 melanoma
[18] = tested on: SR leukemia
[19] = tested on: IGROV1 ovarian
[20] = tested on: ACHN renal
[21] = tested on: SK-MEL-28 melanoma
[22] = tested on: HCT-15 colon
[23] = tested on: A498 renal
[24] = tested on: MCF7 breast
[25] = tested on: SK-MEL-5 melanoma
[26] = tested on: 786-0 renal
[27] = tested on: HL-60(TB) leukemia
[28] = tested on: MALME-3M melanoma
[29] = tested on: MOLT-4 leukemia
[30] = tested on: SN12C renal
[31] = tested on: UO-31 renal
[32] = tested on: SF-295 CNS
[33] = tested on: HS 578T breast
[34] = tested on: HOP-92 NSCLC
[35] = tested on: HCC-2998 colon
[36] = tested on: HCT-116 colon
[37] = tested on: M14 melanoma
[38] = tested on: NCI-H522 lung
[39] = tested on: NCI-H226 lung
[40] = tested on: SK-MEL-2 melanoma
[41] = tested on: SNB-75 CNS
[42] = tested on: BT-549 breast
[43] = tested on: COLO 205 colon
[44] = tested on: EKVX NSCLC
[45] = tested on: HOP-62 NSCLC
[46] = tested on: UACC-257 melanoma
[47] = tested on: MDA-MB-435
[48] = tested on: T-47D breast
[49] = tested on: OVCAR-5 ovarian
[50] = tested on: RXF 393 renal
[51] = tested on: SW-620 colon
[52] = tested on: MDA-MB-231 breast
[53] = tested on: CAKI-1 renal
[54] = tested on: OVCAR-4 ovarian
[55] = tested on: RPMI-8226 leukemia
[56] = tested on: SK-OV-3 ovarian
[57] = tested on: OVCAR-8 ovarian

Question: Which results are given for `CCOc1ccc(-c2nnc(C3CC(NC(=O)c4cccc5nccnc45)C3)n2-c2ccccc2F)nc1` (configuration not stated)?
Answer: GI50 [1]: 21.3 µM; TGI [1]: 59.7 µM; GI50 [2]: 24.5 µM; TGI [2]: > 100 µM; GI50 [3]: 21.1 µM; TGI [3]: 86.9 µM; GI50 [4]: 24.2 µM; TGI [4]: > 100 µM; GI50 [5]: 13.3 µM; TGI [5]: 36.1 µM; GI50 [6]: 24.1 µM; TGI [6]: > 100 µM; GI50 [7]: 19.2 µM; TGI [7]: 92.9 µM; GI50 [8]: 15.1 µM; TGI [8]: 32.4 µM; GI50 [9]: 25.9 µM; TGI [9]: > 100 µM; GI50 [10]: 23.6 µM; TGI [10]: 60.1 µM; GI50 [11]: 14.6 µM; TGI [11]: 29.2 µM; GI50 [12]: 17.5 µM; TGI [12]: 36.7 µM; TGI [13]: 31.1 µM; GI50 [14]: 10.7 µM; TGI [14]: 29.8 µM; GI50 [15]: 20.4 µM; TGI [15]: > 100 µM; GI50 [16]: 26.9 µM; TGI [16]: > 100 µM; GI50 [17]: 17.5 µM; TGI [17]: 38.4 µM; GI50 [18]: 16.5 µM; TGI [18]: 52.9 µM; GI50 [19]: 17 µM; TGI [19]: > 100 µM; GI50 [20]: 15.1 µM; TGI [20]: 29.8 µM; GI50 [21]: 19.3 µM; TGI [21]: 48.1 µM; GI50 [22]: 23.2 µM; TGI [22]: 89 µM; GI50 [23]: 8.31 µM; TGI [23]: 58.6 µM; GI50 [24]: 21.4 µM; TGI [24]: 90.7 µM; GI50 [25]: 14.2 µM; TGI [25]: 27.4 µM; GI50 [26]: 17.6 µM; TGI [26]: > 100 µM; GI50 [27]: 20.9 µM; TGI [27]: 48.3 µM; GI50 [28]: 17.4 µM; TGI [28]: 47.2 µM; GI50 [29]: 14.8 µM; TGI [29]: 39.9 µM; GI50 [30]: 14.7 µM; TGI [30]: 50.5 µM; TGI [31]: > 100 µM; GI50 [32]: 18.7 µM; TGI [32]: 39.7 µM; GI50 [33]: 16.3 µM; TGI [33]: 94.8 µM; GI50 [34]: 4.02 µM; TGI [34]: 40 µM; GI50 [35]: 18.3 µM; TGI [35]: 35.3 µM; GI50 [36]: 16 µM; TGI [36]: 36.2 µM; GI50 [37]: 16.2 µM; TGI [37]: 32.9 µM; GI50 [38]: 14.9 µM; TGI [38]: 34.2 µM; GI50 [39]: 13.1 µM; TGI [39]: 41.5 µM; GI50 [40]: 14.8 µM; TGI [40]: 36.4 µM; GI50 [41]: 13.2 µM; TGI [41]: 46.4 µM; GI50 [42]: 10.9 µM; TGI [42]: 23.7 µM; GI50 [43]: 19.1 µM; TGI [43]: 50.9 µM; GI50 [44]: 27 µM; TGI [44]: > 100 µM; GI50 [45]: 12.7 µM; TGI [45]: 36.9 µM; GI50 [46]: 19.6 µM; TGI [46]: 51 µM; GI50 [47]: 21.2 µM; TGI [47]: 51.5 µM; GI50 [48]: 7.24 µM; TGI [48]: 39.6 µM; GI50 [49]: 18.2 µM; TGI [49]: 52.8 µM; GI50 [50]: 6.82 µM; TGI [50]: 21.5 µM; GI50 [51]: 31.9 µM; TGI [51]: > 100 µM; GI50 [52]: 17.7 µM; TGI [52]: 51.8 µM; GI50 [53]: 14.3 µM; TGI [53]: > 100 µM; GI50 [54]: 12.2 µM; TGI [54]: > 100 µM; GI50 [55]: 12.9 µM; TGI [55]: 35.3 µM; GI50 [56]: 13.6 µM; TGI [56]: 38.2 µM; GI50 [57]: 22.8 µM; TGI [57]: > 100 µM
